Measurements: PubChem BioAssay AID330 (DTP/NCI, 2004)
Values joined by “and” are separate entries in the source; they are usually repeats but may differ in a detail not shown here. Identical values can stand only once. Toxic doses and inconclusive results are not listed.

Tested on: P388 leukemia ip, CD2F1 mice, survival T/C
Assay: NCI In Vivo Anticancer Drug Screen. Data for tumor model P388 Leukemia (intraperitoneal) in CD2F1 (CDF1) mice
Conditions: endpoint: median survival time, higher = longer survival
Procedure, shortened: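 Mice carrying the transplanted tumor received test compound or vehicle. Survival was recorded in each group, and the value is the treated-group measurement divided by that of the vehicle-treated control group.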

[1] = dose: 3.12 mg/kg/injection, schedule: Q01DX009 (ip), vehicle: water
[2] = dose: 6.25 mg/kg/injection, schedule: Q01DX009 (ip), vehicle: water
[3] = dose: 12.5 mg/kg/injection, schedule: Q01DX009 (ip), vehicle: water
[4] = dose: 25.0 mg/kg/injection, schedule: Q01DX009 (ip), vehicle: water
[5] = dose: 100.0 mg/kg/injection, schedule: Q01DX009 (ip), vehicle: water
[6] = dose: 60.0 mg/kg/injection, schedule: Q01DX005 (ip), vehicle: saline
[7] = dose: 120.0 mg/kg/injection, schedule: Q01DX005 (ip), vehicle: saline
[8] = dose: 240.0 mg/kg/injection, schedule: Q01DX005 (ip), vehicle: saline
[9] = dose: 50.0 mg/kg/injection, schedule: Q01DX005 (ip), vehicle: saline with Tween-80
[10] = dose: 100.0 mg/kg/injection, schedule: Q01DX005 (ip), vehicle: saline with Tween-80
[11] = dose: 200.0 mg/kg/injection, schedule: Q01DX005 (ip), vehicle: saline with Tween-80
[12] = dose: 50.0 mg/kg/injection, schedule: Q01DX009 (ip), vehicle: saline with Tween-80
[13] = dose: 100.0 mg/kg/injection, schedule: Q01DX009 (ip), vehicle: saline with Tween-80
[14] = dose: 200.0 mg/kg/injection, schedule: Q01DX009 (ip), vehicle: saline with Tween-80
[15] = dose: 50.0 mg/kg/injection, schedule: Q01DX009 (ip), vehicle: saline
[16] = dose: 100.0 mg/kg/injection, schedule: Q01DX009 (ip), vehicle: saline
[17] = dose: 200.0 mg/kg/injection, schedule: Q01DX009 (ip), vehicle: saline
[18] = dose: 50.0 mg/kg/injection, schedule: Q01DX005 (ip), vehicle: Klucel (hydroxypropylcellulose) (HPC)
[19] = dose: 100.0 mg/kg/injection, schedule: Q01DX005 (ip), vehicle: Klucel (hydroxypropylcellulose) (HPC)

In the case of `CCCCCCCCCCCCCCCC[N+](C)(C)CCNC(=O)c1ccccc1`, the T/C [1] is reported as 101 % of control, the T/C [2] is reported as 106 % of control and the T/C [3] is reported as 99 % of control and 101 % of control.

In the case of `OC1OC2CCC3C2C2C1C1C4CCC5OC(O)C6C3C2C1C6C54` (stereo not given), the T/C (dose: 20.0 mg/kg/injection, schedule: Q01DX005 (ip), vehicle: saline with Tween-80) is reported as 97 % of control, the T/C (dose: 40.0 mg/kg/injection, schedule: Q01DX005 (ip), vehicle: saline with Tween-80) is reported as 100 % of control and the T/C (dose: 80.0 mg/kg/injection, schedule: Q01DX005 (ip), vehicle: saline with Tween-80) is reported as 100 % of control.

`COc1cc2c(cc1O)-c1c(cnn1-c1ccc([N+](=O)[O-])cc1[N+](=O)[O-])CCC2` was tested, and the T/C (dose: 100.0 mg/kg/injection, schedule: Q04DX003 (ip), vehicle: saline) was 100 % of control, the T/C (dose: 200.0 mg/kg/injection, schedule: Q04DX003 (ip), vehicle: saline) was 99 % of control and the T/C (dose: 400.0 mg/kg/injection, schedule: Q04DX003 (ip), vehicle: saline) was 96 % of control.

With `O=NNc1cnc(-c2ccccc2)c(-c2ccccc2)n1` the T/C [1] was 103 % of control, the T/C [2] was 104 % of control and the T/C [3] was 105 % of control and 111 % of control. The T/C [4] was 116 % of control and 117 % of control and the T/C [5] was 96 % of control.

In the case of `COc1ccc(C(=O)N=C(N)n2nc(C)cc2C)cc1`, the T/C (dose: 100.0 mg/kg/injection, schedule: Q04DX003 (ip), vehicle: Klucel (hydroxypropylcellulose) (HPC)) is reported as 90 % of control, the T/C (dose: 200.0 mg/kg/injection, schedule: Q04DX003 (ip), vehicle: Klucel (hydroxypropylcellulose) (HPC)) is reported as 101 % of control and the T/C (dose: 400.0 mg/kg/injection, schedule: Q04DX003 (ip), vehicle: Klucel (hydroxypropylcellulose) (HPC)) is reported as 94 % of control.

`Cc1cc(O)c(O)c(Oc2cc(C)cc(O)c2O)c1` was tested, and the T/C (dose: 75.0 micrograms/kg/injection, schedule: Q01DX009 (ip), vehicle: saline) was 100 % of control, the T/C (dose: 150.0 micrograms/kg/injection, schedule: Q01DX009 (ip), vehicle: saline) was 109 % of control and the T/C (dose: 300.0 micrograms/kg/injection, schedule: Q01DX009 (ip), vehicle: saline) was 102 % of control.

`CCOC(=O)/C(NC(=O)c1ccccc1)=C(\NC(=O)c1ccccc1)C(=O)OCC` was tested, and the T/C [6] was 104 % of control, the T/C [7] was 96 % of control and the T/C [8] was 96 % of control.

In the case of `O=C(CNO)OCc1ccccc1`, the T/C (dose: 25.0 mg/kg/injection, schedule: Q01DX009 (ip), vehicle: other) is reported as 97 % of control, the T/C (dose: 50.0 mg/kg/injection, schedule: Q01DX009 (ip), vehicle: other) is reported as 106 % of control and the T/C (dose: 100.0 mg/kg/injection, schedule: Q01DX009 (ip), vehicle: other) is reported as 104 % of control. The T/C (dose: 200.0 mg/kg/injection, schedule: Q01DX009 (ip), vehicle: other) was 100 % of control and the T/C (dose: 400.0 mg/kg/injection, schedule: Q01DX009 (ip), vehicle: other) was 106 % of control.

For `CCC(C)C(N)C(=O)NC(CC(N)=O)C(=O)NC(CC(C)C)C(=O)NC(CCCCN)C(=O)NC(C)C(=O)NC(CC(C)C)C(=O)NC(C)C(=O)NC(C)C(=O)NC(CC(C)C)C(=O)NC(C)C(=O)NC(CCCCN)C(=O)NC(CCCCN)C(=O)NC(C(=O)NC(CC(C)C)C(N)=O)C(C)CC` (stereo not given), the T/C (dose: 1.56 mg/kg/injection, schedule: Q01DX005 (ip), vehicle: Klucel (hydroxypropylcellulose) (HPC)) was 102 % of control, the T/C (dose: 3.12 mg/kg/injection, schedule: Q01DX005 (ip), vehicle: Klucel (hydroxypropylcellulose) (HPC)) was 100 % of control and the T/C (dose: 6.25 mg/kg/injection, schedule: Q01DX005 (ip), vehicle: Klucel (hydroxypropylcellulose) (HPC)) was 95 % of control. For the same compound, the T/C (dose: 12.5 mg/kg/injection, schedule: Q01DX005 (ip), vehicle: Klucel (hydroxypropylcellulose) (HPC)) was 94 % of control and 96 % of control.

In the case of `CCOC(=O)N1c2ccccc2OC1C#N` (stereo not given), the T/C [9] is reported as 99 % of control, the T/C [10] is reported as 107 % of control and the T/C [11] is reported as 113 % of control.

`O=[N+]([O-])c1ccc(C=Nc2ccccc2)cc1` was tested, and the T/C [12] was 101 % of control, the T/C [13] was 101 % of control and the T/C [14] was 97 % of control. For the same compound, the T/C (dose: 400.0 mg/kg/injection, schedule: Q01DX009 (ip), vehicle: saline with Tween-80) was 96 % of control.

In the case of `COCCn1c2nc(=O)n(-c3ccccc3)c(=O)c-2nc2c1CCCC2`, the T/C (dose: 25.0 mg/kg/injection, schedule: Q01DX009 (ip), vehicle: saline) is reported as 100 % of control, the T/C [15] is reported as 93 % of control and the T/C [16] is reported as 94 % of control. The T/C [17] was 116 % of control.

With `CCC(C(=O)c1ccccc1)C1(C(=O)OC)NC(=S)NC(=O)C1C#N` (stereo not given) the T/C [6] was 95 % of control, the T/C [7] was 95 % of control and the T/C [8] was 100 % of control.

For `CCCCCCCS(=O)(=O)OCCCCOS(=O)(=O)CCCCCCC`, the T/C (dose: 45.0 mg/kg/injection, schedule: Q01DX005 (ip), vehicle: acetone) was 99 % of control, the T/C (dose: 90.0 mg/kg/injection, schedule: Q01DX005 (ip), vehicle: acetone) was 100 % of control and the T/C (dose: 180.0 mg/kg/injection, schedule: Q01DX005 (ip), vehicle: acetone) was 99 % of control.

`O=[N+]([O-])c1cnc(-c2ccc(F)cc2)n1CCO` was tested, and the T/C [12] was 100 % of control, the T/C [13] was 105 % of control and the T/C [14] was 112 % of control.

`O=C(CCl)NCC1OC(n2cnc3c(=O)[nH]cnc32)C(O)C1O` (stereo not given) was tested, and the T/C (dose: 50.0 mg/kg/injection, schedule: Q01DX005 (ip), vehicle: saline) was 98 % of control, the T/C (dose: 100.0 mg/kg/injection, schedule: Q01DX005 (ip), vehicle: saline) was 96 % of control and the T/C (dose: 200.0 mg/kg/injection, schedule: Q01DX005 (ip), vehicle: saline) was 100 % of control.

With `Clc1ccc(SSN2CCCCC2)cc1` the T/C [15] was 92 % of control, the T/C [16] was 97 % of control and the T/C [17] was 96 % of control.

In the case of `O=C1OC2(CCCCC2)Cc2oc3ccccc3c(=O)c21`, the T/C (dose: 25.0 mg/kg/injection, schedule: Q01DX005 (ip), vehicle: Klucel (hydroxypropylcellulose) (HPC)) is reported as 98 % of control, the T/C [18] is reported as 100 % of control and the T/C [19] is reported as 90 % of control.

For `Cc1c(-c2cnccn2)ssc1=S`, the T/C [9] was 103 % of control, the T/C [10] was 99 % of control and the T/C [11] was 103 % of control.

`NNS(=O)(=O)CCC(N)C(=O)O` (stereo not given) was tested, and the T/C [3] was 100 % of control, the T/C [4] was 107 % of control and the T/C (dose: 50.0 mg/kg/injection, schedule: Q01DX009 (ip), vehicle: water) was 107 % of control. The T/C [5] was 98 % of control.

In the case of `O=[N+]([O-])O.O=[N+]([O-])O.[NH-]C1CCCC1[NH-].[Pt+2]` (stereo not given), the T/C (dose: 6.25 mg/kg/injection, schedule: Q04DX002 (ip), vehicle: saline) is reported as 180 % of control, the T/C (dose: 12.5 mg/kg/injection, schedule: Q04DX002 (ip), vehicle: saline) is reported as 180 % of control and the T/C (dose: 12.5 mg/kg/injection, schedule: Q04DX002 (ip), vehicle: suspension in saline) is reported as 184 % of control. The T/C (dose: 25.0 mg/kg/injection, schedule: Q04DX002 (ip), vehicle: saline) was 197 % of control and the T/C (dose: 25.0 mg/kg/injection, schedule: Q04DX002 (ip), vehicle: suspension in saline) was 202 % of control.

`COc1c(C)cc(C)c(CCl)c1-c1c(CCl)c(C)cc(C)c1OC` was tested, and the T/C (dose: 100.0 mg/kg/injection, schedule: Q01DX001 (ip), vehicle: Klucel (hydroxypropylcellulose) (HPC)) was 90 % of control and the T/C (dose: 200.0 mg/kg/injection, schedule: Q01DX001 (ip), vehicle: Klucel (hydroxypropylcellulose) (HPC)) was 93 % of control.

For `C=CCOc1cc2c(cc1C(C)c1ccc(OCCC)cc1)OCO2` (stereo not given), the T/C [9] was 97 % of control, the T/C [10] was 102 % of control and the T/C [11] was 107 % of control.

In the case of `COc1cc(Cc2cnc(N)nc2N)cc(OC)c1OC`, the T/C [9] is reported as 100 % of control, the T/C [10] is reported as 99 % of control and the T/C [11] is reported as 100 % of control. For the same compound, the T/C (dose: 400.0 mg/kg/injection, schedule: Q01DX005 (ip), vehicle: saline with Tween-80) was 100 % of control.

`CCOC(=O)CN(C)C(c1ccccc1)c1cccs1` (stereo not given) was tested, and the T/C (dose: 100.0 mg/kg/injection, schedule: Q04DX002 (ip), vehicle: Klucel (hydroxypropylcellulose) (HPC)) was 102 % of control and the T/C (dose: 200.0 mg/kg/injection, schedule: Q04DX002 (ip), vehicle: Klucel (hydroxypropylcellulose) (HPC)) was 105 % of control.

For `CC(=O)Nc1c(O)c2ccccc2c2ccccc12`, the T/C [18] was 87 % of control, the T/C [19] was 92 % of control and the T/C (dose: 200.0 mg/kg/injection, schedule: Q01DX005 (ip), vehicle: Klucel (hydroxypropylcellulose) (HPC)) was 86 % of control.

`O=S(=O)(Cc1ccccc1)c1ccccc1` was tested, and the T/C [15] was 118 % of control, the T/C [16] was 118 % of control and the T/C [17] was 116 % of control.
